Source: patent publication US20260116889A1, “MACROCYCLIC PYRIMIDINE DERIVATIVE, METHOD FOR PREPARING SAME, AND PHARMACEUTICAL COMPOSITION FOR PREVENTION OR TREATMENT OF NEURODEGENERATIVE DISEASE CONTAINING SAME AS ACTIVE INGREDIENT” (WHAN IN PHARMACEUTICAL CO., LTD., priority 2021, published 2026)

How the values were obtained:
[1] = target: T1, wild type LRRK2 (leucine-rich repeat kinase 2) (Homo sapiens, UniProt Q5S007); assay: HotSpot radiometric kinase assay (Reaction Biology), LRRK2 wild type inhibitory activity; type: biochemical; conditions: 10 μM ATP, 25° C., 120 min
T1 construct: purchased Reaction Biology Corporation
Description: (§1) The experimental method was as follows.
(§2) Specific kinase/substrate pairs were prepared in reaction buffer (20 mM Hepes pH 7.5, 10 mM MgCl2, 1 mM EGTA, 0.02% Brij35, 0.02 mg/ml BSA, 0.1 mM Na3VO4, 2 mM DTT, 1% DMSO) along with the required cofactors. The compounds were transferred to the reaction, and after 20 min, a mixture of ATP (Sigma) and ^33P ATP (PerkinElmer) was added to a final concentration of 10 μM. The reaction was carried out at 25° C. for 120 min and then dropped onto P81 ion exchange filter paper (Whatman). […] IC50 values were obtained using Prism (GraphPad Software).

[2] = target: T2, G2019S mutant of LRRK2 (leucine-rich repeat kinase 2) (Homo sapiens, UniProt Q5S007, G2019S); assay: HotSpot radiometric kinase assay (Reaction Biology), LRRK2 G2019S mutant inhibitory activity; type: biochemical; conditions: 10 μM ATP, 25° C., 120 min
T2 construct: purchased Reaction Biology Corporation
Description: as §1, §2

[3] = Blood-brain barrier (BBB) permeability after oral administration, plasma and brain by LC-MS/MS; type: in vivo; conditions: 5 mg/kg oral administration; plasma and brain tissue at 1 and 3 hours
Description: To evaluate the blood-brain barrier permeability, the following experiment was conducted.
The test substance was prepared at a dosage of 5 mg/kg, and after oral administration, the animals were sacrificed at 1 and 3 hours, and blood was collected from the heart and centrifuged to prepare plasma samples. To remove the remaining blood in the body, the brain was removed after cardiac perfusion using 20 ml of saline containing 10 U/ml heparin. The brain tissue was homogenized by adding 3 times the weight of PBS buffer. LC-MS/MS (Agilent, Santa Clara, CA, USA) was used for quantitative analysis of the prepared plasma and brain tissue. The separation of substances in LC used a mobile phase consisting of 20% water with 80% acetonitrile and 0.1% formic acid. The total run time per substance was 3 minutes, and the flow rate was 0.3 ml/min.

T2 sequence (Q5S007 whole entry G2019S): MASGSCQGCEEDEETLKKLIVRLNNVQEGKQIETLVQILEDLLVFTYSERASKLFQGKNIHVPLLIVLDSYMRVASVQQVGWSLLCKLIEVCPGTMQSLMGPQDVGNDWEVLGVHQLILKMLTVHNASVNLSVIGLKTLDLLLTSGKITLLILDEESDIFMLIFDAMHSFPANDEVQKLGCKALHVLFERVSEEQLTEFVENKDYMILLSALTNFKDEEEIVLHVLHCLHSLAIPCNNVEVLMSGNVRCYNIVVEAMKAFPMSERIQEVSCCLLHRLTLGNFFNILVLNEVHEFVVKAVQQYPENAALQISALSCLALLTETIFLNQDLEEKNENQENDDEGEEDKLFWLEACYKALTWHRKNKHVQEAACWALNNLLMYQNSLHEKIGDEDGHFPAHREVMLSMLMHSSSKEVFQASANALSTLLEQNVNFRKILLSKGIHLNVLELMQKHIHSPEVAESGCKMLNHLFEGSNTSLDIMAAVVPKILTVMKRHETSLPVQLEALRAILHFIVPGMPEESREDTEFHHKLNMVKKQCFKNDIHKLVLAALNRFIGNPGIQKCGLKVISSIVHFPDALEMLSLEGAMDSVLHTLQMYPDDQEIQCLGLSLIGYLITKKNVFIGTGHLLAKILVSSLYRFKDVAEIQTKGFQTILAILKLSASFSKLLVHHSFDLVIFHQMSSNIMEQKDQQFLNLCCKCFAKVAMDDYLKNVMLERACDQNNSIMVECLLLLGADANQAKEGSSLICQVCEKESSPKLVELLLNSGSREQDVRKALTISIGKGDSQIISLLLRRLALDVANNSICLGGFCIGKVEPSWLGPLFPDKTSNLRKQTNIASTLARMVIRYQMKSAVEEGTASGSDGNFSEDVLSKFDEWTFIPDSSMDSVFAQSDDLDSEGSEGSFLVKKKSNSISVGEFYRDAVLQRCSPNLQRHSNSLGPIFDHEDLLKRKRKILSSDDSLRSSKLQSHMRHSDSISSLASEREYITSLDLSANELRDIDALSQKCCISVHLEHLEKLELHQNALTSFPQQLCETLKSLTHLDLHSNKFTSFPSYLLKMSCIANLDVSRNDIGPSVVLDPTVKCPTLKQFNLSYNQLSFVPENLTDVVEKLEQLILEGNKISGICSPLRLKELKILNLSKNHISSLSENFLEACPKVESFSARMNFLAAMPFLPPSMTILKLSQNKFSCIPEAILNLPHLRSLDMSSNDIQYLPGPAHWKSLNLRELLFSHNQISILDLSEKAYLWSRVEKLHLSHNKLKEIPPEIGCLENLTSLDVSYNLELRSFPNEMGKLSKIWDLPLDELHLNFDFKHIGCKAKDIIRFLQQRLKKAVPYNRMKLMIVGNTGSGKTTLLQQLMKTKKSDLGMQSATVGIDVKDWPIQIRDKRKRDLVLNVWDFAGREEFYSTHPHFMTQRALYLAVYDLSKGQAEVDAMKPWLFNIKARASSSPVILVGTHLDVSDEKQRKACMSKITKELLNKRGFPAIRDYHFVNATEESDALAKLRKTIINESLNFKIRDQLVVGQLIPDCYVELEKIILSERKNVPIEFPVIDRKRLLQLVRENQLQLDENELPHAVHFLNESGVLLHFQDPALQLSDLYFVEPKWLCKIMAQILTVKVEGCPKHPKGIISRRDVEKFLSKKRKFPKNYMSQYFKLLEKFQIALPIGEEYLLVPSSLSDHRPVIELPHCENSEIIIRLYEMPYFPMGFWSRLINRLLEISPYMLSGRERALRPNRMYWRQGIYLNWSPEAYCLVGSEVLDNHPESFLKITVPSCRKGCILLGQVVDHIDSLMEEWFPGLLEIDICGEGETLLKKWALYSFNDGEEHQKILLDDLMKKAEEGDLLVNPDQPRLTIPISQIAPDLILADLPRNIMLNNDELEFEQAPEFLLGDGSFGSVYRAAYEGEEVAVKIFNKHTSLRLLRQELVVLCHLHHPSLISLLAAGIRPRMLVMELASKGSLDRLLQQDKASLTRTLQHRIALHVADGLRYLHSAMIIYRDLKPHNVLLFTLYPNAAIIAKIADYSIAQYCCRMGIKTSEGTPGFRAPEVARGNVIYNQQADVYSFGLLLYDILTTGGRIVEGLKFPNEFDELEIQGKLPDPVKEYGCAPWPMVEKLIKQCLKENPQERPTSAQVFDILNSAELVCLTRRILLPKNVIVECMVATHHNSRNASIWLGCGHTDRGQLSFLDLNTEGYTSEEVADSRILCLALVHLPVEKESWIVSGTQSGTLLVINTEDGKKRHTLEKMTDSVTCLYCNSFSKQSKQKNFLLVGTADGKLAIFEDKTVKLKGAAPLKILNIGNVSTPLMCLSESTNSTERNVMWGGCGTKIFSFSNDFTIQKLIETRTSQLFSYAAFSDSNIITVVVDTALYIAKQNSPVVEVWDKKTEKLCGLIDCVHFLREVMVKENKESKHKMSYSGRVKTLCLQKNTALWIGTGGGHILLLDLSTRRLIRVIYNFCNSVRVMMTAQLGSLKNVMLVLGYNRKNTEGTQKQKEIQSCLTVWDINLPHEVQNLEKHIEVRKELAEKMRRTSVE
T1 sequence (Q5S007 whole entry): as the sequence (Q5S007 whole entry G2019S) above, with S2019G counted along it

| IC50 [1] [nM] | IC50 [2] [nM] | Kp [3] | Structure (SMILES) |
| --- | --- | --- | --- |
| 26.6 | 23.3 | 0.11 | COc1ccc2cc1C(=O)N(C)CCCNc1nc(ncc1Cl)N2 [Example 15, 1^5-chloro-3^4-methoxy-5-methyl-2,5,9-triaza-1 (2,4)-pyrimidina-3 (1,3)-benzenacyclononapane-4-one;2,2,2-trifluoroacetate] |
| 6.62 | 7.12 | 0.12 | COc1ccc2cc1Nc1ncc(Cl)c(n1)NCCCCN(C)C2=O [Example 16, 1^5-chloro-3^6-methoxy-5-methyl-2,5,10-triaza-1 (2,4)-pyrimidina-3 (1,3)-benzenacyclodecarphane-4-one;2,2,2-trifluoroacetate] |
| 2.89 | 0.471 | 0.51 | COc1cc2cc(c1)C(=O)N(C)CCCN(C)c1nc(ncc1C(F)(F)F)N2 [Example 32, 35-methoxy-5,9-dimethyl-1^5-(trifluoromethyl)-2,5,9-triaza-1 (2,4)-pyrimidina-3 (1,3)-benzenacyclononapane-4-one;2,2,2-trifluoroacetate] |
